Literature values, collected in patent publication US20240307311A1, “STARCH BASED PRINTABLE MATERIALS” (ROQUETTE FRERES, priority 2021, published 2024).

Row | SMILES | solubility in water (descriptive class)
1 | CCC(C)n1ncn(-c2ccc(N3CCN(c4ccc(OCC5COC(Cn6cncn6)(c6ccc(Cl)cc6Cl)O5)cc4)CC3)cc2)c1=O (centres unmarked) [itraconazole] | practically insoluble in water
2 | Cn1c(=O)c2c(ncn2CC(O)CO)n(C)c1=O (centres unmarked) [diprophylline] | freely soluble in water
